Patent US20090286816A1, “MODULATORS OF METABOLISM AND THE TREATMENT OF DISORDERS RELATED THERETO” (ARENA PHARMACEUTICALS, INC., priority 2006, published 2009)
Like-named read-outs stand apart in the source and are kept apart here.

Tests used:
[1] = Rat dose-range PK study (dose escalation pharmacokinetics); assay type: in vivo; conditions: for AUC(0-t): male, SD, plasma, PO, read-out: AUC24 hr
Description: Male SD rats (250-300 g) were purchased from Charles River Laboratory; upon receipt, animals were placed under light-dark cycle (6:30 am-6:30 pm lights on). They were allowed ad libitum access to water and 4 pieces of food daily (Purina Meals Rodent Diet, Product Number 5001).
Compound formulations were prepared as following: The IV injection formulation was prepared in 20% hydroxypropyl-beta-cyclodextrin with concentration of 0.667 mg/mL. […] The dosing volume for IV injection was 3 mL/Kg and for PO administration was 10 mL/Kg. Four rats were used for each dose group. […]
All rats (4 rats per group, housed individually) were fasted overnight prior to in-life phase. On the next morning, rats were received an IV (via tail vein injection) injection or gavage dose of compound starting at 8 am (IV) and 9 am (PO). Next, each rat were orbital bled at 0.085, 0.25, 0.5, 1, 2, 4, 6, 8, and 24 hr (IV) or 0.5, 1, 2, 4, 6, 8, and 24 hr (PO) to collect blood samples for PK analysis.
The blood samples were collected via orbital bleeding into tubes containing EDTA, 0.25 mL blood each time. These samples were put on ice and within 2 hours plasma was prepared by centrifugation at 3,000 rpm for 30 min at 4° C. 100 μl of plasma were transferred into a 96-tube box for PK analysis.
Plasma samples were prepared as follows. Two hundred microliters of acetonitrile containing internal standard was added to 100 μL of plasma to precipitate proteins. Samples were centrifuged at 3000 g for 5 minutes and supernatant removed for analysis by LC-MS-MS. Calibration standards and quality control samples were prepared by adding a known volume of standard stock solution (50% methanol, 50% H2O) directly into blank plasma and treated identically to collected plasma samples. Calibration standards were typically prepared in the range of 2.0 ng/mL to 110 μg/mL with linear regression for quantitation. These sample preparation steps were automated using a liquid handling workstation (Tomtec Quadra 96) in the 96-well format. Reversed phase LC-MS-MS analysis was performed using either multiple reaction or selected ion monitoring for detection of characteristic ions for each drug candidate and the internal standard used was propranolol for positive ions or chloramphenicol for negative ions.
Results were calculated by noncompartmental analysis using WinNonlin Pro version 3.1 based on plasma concentration-time profiles for individual animals. Plasma levels were determined as described above and the oral and intravenous area under the concentration vs. time curve (AUC was calculated using the linear trapezoidal rule up to the last measurable concentration and was then extrapolated to infinity) were compared to determine the % bioavailability (% F) by the following formula: Dose (IV)*AUC (oral)/Dose (oral)*AUC (IV).
There may be significant variation within the individual animals and the analytical method and that variation was evidenced by the % CV. AUMC was the first statistical moment of the AUC and was used to calculate the mean residence time (MRT=AUMC/AUC), which was the average time the compound was in the animal. The Cmax represented the maximum concentration observed, the Tmax was the time to reach that maximum concentration and the T1/2 was the calculated terminal half-life of the compound in plasma using the slope of a log concentration vs time plot if there were sufficient elimination phase data points (at least three data points in the terminal phase excluding the Cmax). Systemic clearance (CL=Dose(IV)/AUC(IV)) was the volume of fluid (containing compound) from which compound was removed completely per unit time. Volume of distribution at steady state (Vss=CL*MRT) was the extent of distribution of a drug from the plasma to the tissues at steady state.

Male Sprague Dawley rats = assay: Oral glucose tolerance test (oGTT) in rats; assay type: in vivo, rat; conditions: fasted male SD rats, p.o. 30 min before dextrose 3 g/kg, mean of six animals, dose of the group not stated (0.3, 3 or 30 mg/kg tested)
Description: Male Sprague Dawley rats (Harlan, San Diego, Calif.) weighing approximately 350-375 g were fasted for 16 hours and randomly grouped (n=6) to receive a RUP3 agonist at 0.3, 3 or 30 mg/kg. Compounds were delivered orally via a gavage needle (p.o., volume 2 mL/kg). At time 0, levels of blood glucose were assessed using a glucometer (Accu-Chek Advantage, Roche Diagnostics), and rats were administered either vehicle (20% hydroxypropyl-beta-cyclodextrin) or test compound. Thirty minutes after administration of test compound, levels of blood glucose were again assessed, and rats were administered dextrose orally at a dose of 3 g/kg. Blood glucose measurements were then taken 30 min, 60 min, and 120 min after this time.

RUP3 receptor [2] = target: T1, RUP3 receptor (Homo sapiens, UniProt Q8TDV5); assay: RUP3 dose response in melanophores (human receptor); assay type: cell-based
T1 construct: expressed in transfected cells; host or cells: melanophores (cultured per Potenza and Lerner 1992), electroporated
T1 sequence (Q8TDV5 1-335): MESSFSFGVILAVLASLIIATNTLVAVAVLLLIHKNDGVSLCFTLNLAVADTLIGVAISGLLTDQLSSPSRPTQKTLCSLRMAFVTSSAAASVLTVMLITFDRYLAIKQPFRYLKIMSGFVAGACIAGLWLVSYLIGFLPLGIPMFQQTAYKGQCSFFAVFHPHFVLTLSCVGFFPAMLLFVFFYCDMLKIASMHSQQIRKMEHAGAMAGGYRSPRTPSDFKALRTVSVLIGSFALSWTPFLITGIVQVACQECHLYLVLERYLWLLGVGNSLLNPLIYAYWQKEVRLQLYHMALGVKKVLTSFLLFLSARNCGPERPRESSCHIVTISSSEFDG
Description: (§1) Melanophores are maintained in culture as reported by Potenza, M. N. and Lerner, M. R., in Pigment Cell Research, Vol. 5, 372-378, 1992 and transfected with the RUP3 expression vector (pCMV) using electroporation. Following electroporation, the transfected cells are plated into 96 well plates for the assay. The cells are then allowed to grow for 48 hours in order to both recover from the electroporation procedure and attain maximal receptor expression levels. On the assay day, the growth medium on the cells is replaced with serum-free buffer containing 10 nM melatonin. The melatonin acts via an endogenous Gi-coupled GPCR in the melanophores to lower intracellular cAMP levels. In response to lowered cAMP levels, the melanophores translocate their pigment to the center of the cell. The net effect of this is a significant decrease in the absorbance reading of the cell monolayer in the well, measured at […]. After a 1-hour incubation in melatonin, the cells become completely pigment-aggregated. At this point a baseline absorbance reading is collected. Serial dilutions of test compounds are then added to the plate and compounds that stimulate RUP3 produce increases in intracellular cAMP levels. […] The measured increase in absorbance compared to the baseline reading allows one to quantitate the degree of receptor stimulation and plot a dose-response curve.

RUP3 receptor [3] = target: T2, RUP3 receptor (Canis lupus familiaris, UniProt A0A8I3QZL6); assay: RUP3 dose response in melanophores (dog receptor); assay type: cell-based
T2 sequence (A0A8I3QZL6 1-335): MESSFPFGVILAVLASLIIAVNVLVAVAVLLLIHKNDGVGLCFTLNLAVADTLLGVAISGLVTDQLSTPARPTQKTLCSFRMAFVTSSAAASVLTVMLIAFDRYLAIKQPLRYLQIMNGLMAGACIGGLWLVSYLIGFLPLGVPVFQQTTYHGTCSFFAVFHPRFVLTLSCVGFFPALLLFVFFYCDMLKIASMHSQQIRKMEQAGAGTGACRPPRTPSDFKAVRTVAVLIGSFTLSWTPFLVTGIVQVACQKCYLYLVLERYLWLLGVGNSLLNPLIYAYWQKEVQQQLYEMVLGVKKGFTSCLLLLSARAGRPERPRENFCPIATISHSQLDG
Description: as §1

RUP3 receptor [4] = target: T3, RUP3 receptor (Mus musculus, UniProt Q7TQP3); assay: RUP3 dose response in melanophores (mouse receptor); assay type: cell-based
T3 construct: expressed in transfected cells; host or cells: melanophores (cultured per Potenza and Lerner 1992), electroporated
T3 sequence (Q7TQP3 1-335): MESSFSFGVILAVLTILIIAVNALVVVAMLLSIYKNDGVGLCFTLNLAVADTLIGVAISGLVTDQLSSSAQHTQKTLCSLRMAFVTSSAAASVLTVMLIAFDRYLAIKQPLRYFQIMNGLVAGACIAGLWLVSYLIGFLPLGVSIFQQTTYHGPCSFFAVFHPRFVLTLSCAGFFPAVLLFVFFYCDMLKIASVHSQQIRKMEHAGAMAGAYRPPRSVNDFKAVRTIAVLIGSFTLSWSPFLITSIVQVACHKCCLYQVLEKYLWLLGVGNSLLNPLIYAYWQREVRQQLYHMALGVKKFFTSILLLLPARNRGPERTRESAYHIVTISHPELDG
Description: as §1

RUP3 receptor [5] = target: T4, RUP3 receptor (Rattus norvegicus, UniProt Q7TQN8); assay: RUP3 dose response in melanophores (rat receptor); assay type: cell-based
T4 construct: expressed in transfected cells; host or cells: melanophores (cultured per Potenza and Lerner 1992), electroporated
T4 sequence (Q7TQN8 1-468): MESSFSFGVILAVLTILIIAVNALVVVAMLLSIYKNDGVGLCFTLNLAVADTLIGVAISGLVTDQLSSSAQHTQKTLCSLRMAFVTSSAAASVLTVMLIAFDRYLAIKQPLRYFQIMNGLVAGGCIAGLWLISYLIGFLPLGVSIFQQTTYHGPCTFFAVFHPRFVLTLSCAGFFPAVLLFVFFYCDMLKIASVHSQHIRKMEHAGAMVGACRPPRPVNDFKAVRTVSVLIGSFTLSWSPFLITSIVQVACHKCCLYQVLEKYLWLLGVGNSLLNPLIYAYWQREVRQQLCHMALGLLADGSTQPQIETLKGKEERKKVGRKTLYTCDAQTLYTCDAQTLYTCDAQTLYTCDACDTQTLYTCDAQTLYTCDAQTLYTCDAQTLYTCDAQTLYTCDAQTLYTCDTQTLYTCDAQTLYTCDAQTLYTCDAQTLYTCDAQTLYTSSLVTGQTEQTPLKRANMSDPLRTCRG
Description: as §1

SMILES	AUC(0-t) ([1]; dose 30 mg) [µg·h/mL]	AUC(0-t) ([1]; dose 300 mg) [µg·h/mL]	AUC(0-t) ([1]; dose 3 mg) [µg·h/mL]	also measured
Cc1c(Nc2ccc(S(C)(=O)=O)cc2F)ncnc1OC1CCN(c2nc(C(C)C)no2)CC1 [Compound B, (2-Fluoro-4-methanesulfonyl-phenyl)-{6-[1-(3-isopropyl-[1,2,4]oxadiazol-5-yl)-piperidin-4-yloxy]-5-methyl-pyrimidin-4-yl}-amine]	5.99	11	2.12	–
COc1c(Nc2ccc(S(C)(=O)=O)nc2C)ncnc1OC1CCN(c2nc(C(C)C)no2)CC1 [Compound G, {6-[1-(3-Isopropyl-[1,2,4]oxadiazol-5-yl)-piperidin-4-yloxy]-5-methoxy-pyrimidin-4-yl}-(6-methanesulfonyl-2-methyl-pyridin-3-yl)-amine]	6.47	33.9	1.66	–
COc1c(Nc2ccc(-n3cncn3)nc2C)ncnc1OC1CCN(C(=O)OC(C)C)CC1 [Compound of Formula (I), 4-[5-Methoxy-6-(2-methyl-6-[1,2,4]triazol-1-yl-pyridin-3-ylamino)-pyrimidin-4-yloxy]-piperidine-1-carboxylic acid isopropyl ester]	79.8	286	3.59	mean percent inhibition of glucose excursion (Male Sprague Dawley rats): 60%; EC50 (RUP3 receptor [2]): 0.002 µM; EC50 (RUP3 receptor [3]): 0.004 µM; EC50 (RUP3 receptor [4]): 0.057 µM; EC50 (RUP3 receptor [5]): 0.081 µM; dose escalation pharmacokinetics (AUC vs dose) ([1]; PO 3, 30, 300 mg/Kg, FIG. 1): essentially linear

The next lines start with results.

AUC(0-t) ([1]; dose 30 mg) [µg·h/mL]	AUC(0-t) ([1]; dose 300 mg) [µg·h/mL]	AUC(0-t) ([1]; dose 3 mg) [µg·h/mL]	SMILES	also measured
9.93	97	–	CC(C)OC(=O)N1CCC(Oc2ncnc3c2cnn3-c2ccc(S(C)(=O)=O)cc2F)CC1 [Compound A, 4-[1-(2-Fluoro-4-methanesulfonyl-phenyl)-1H-pyrazolo[3,4-d]pyrimidin-4-yloxy]-piperidine-1-carboxylic acid isopropyl ester]	AUC(0-t) ([1]; dose 10 mg): 2.59 µg·h/mL; AUC(0-t) ([1]; dose 100 mg): 133 µg·h/mL; AUC(0-t) ([1]; dose 1000 mg): 377 µg·h/mL
65.9	419	14.9	COc1c(Nc2ccc(S(C)(=O)=O)nc2C)ncnc1OC1CCN(C(=O)OC(C)C)CC1 [Compound C, 4-[6-(6-Methanesulfonyl-2-methyl-pyridin-3-ylamino)-5-methoxy-pyrimidin-4-yloxy]-piperidine-1-carboxylic acid isopropyl ester]	–
29.4	54.7	5.6	COc1c(Nc2cnc(S(C)(=O)=O)cc2C)ncnc1OC1CCN(C(=O)OC(C)C)CC1 [Compound D, 4-[6-(6-Methanesulfonyl-4-methyl-pyridin-3-ylamino)-5-methoxypyrimidin-4-yloxy]-piperidine-1-carboxylic acid isopropyl ester]	–
55.9	515	4.73	Cc1nc(S(C)(=O)=O)ccc1Nc1ncnc(OC2CCN(C(=O)OC(C)C)CC2)c1C [Compound E, 4-[6-(6-methanesulfonyl-2-methyl-pyridin-3-ylamino)-5-methyl-pyrimidin-4-yloxy]-piperidine-1-carboxylic acid isopropyl ester]	–
